Measured values as given in ChEMBL document CHEMBL1201862, “PubChem BioAssay data set” (2004).
Calls of active or inactive are those of the source.

Columns and labels:
[1] = target: Disintegrin and metalloproteinase domain-containing protein 17 (Homo sapiens, UniProt P78536); test: exosite inhibitors of ADAM17, dose response, biochemical (AID 743260)
[2] = inhibition of ADAM10 peptide cleavage – biochemical, FRET peptide substrate, recombinant human ADAM10, selectivity assay for ADAM17 exosite inhibitor project, dose response (AID 743259);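 also: ADAM10 enzyme cleaving a FRET peptide substrate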
[3] = target: Voltage-dependent T-type calcium channel subunit alpha-1H (Homo sapiens, UniProt O95180); format: functional;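 also: channel activity triggered by adding a high calcium stimulation buffer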
[4] = target: Cytochrome P450 3A4 (Homo sapiens, UniProt P08684);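 also: CYP3A4 tested as one member of a cytochrome P450 panel screen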
[5] = target: Kallikrein-7 (Homo sapiens, UniProt P49862); test: Fluorescence Intensity-based biochemical primary high throughput dose response assay to identify activators of kallikrein-7 (K7) zymogen.
[6] = target: T1, Protein skinhead-1 (Caenorhabditis elegans, UniProt P34707); format: functional
T1 sequence (P34707 whole entry): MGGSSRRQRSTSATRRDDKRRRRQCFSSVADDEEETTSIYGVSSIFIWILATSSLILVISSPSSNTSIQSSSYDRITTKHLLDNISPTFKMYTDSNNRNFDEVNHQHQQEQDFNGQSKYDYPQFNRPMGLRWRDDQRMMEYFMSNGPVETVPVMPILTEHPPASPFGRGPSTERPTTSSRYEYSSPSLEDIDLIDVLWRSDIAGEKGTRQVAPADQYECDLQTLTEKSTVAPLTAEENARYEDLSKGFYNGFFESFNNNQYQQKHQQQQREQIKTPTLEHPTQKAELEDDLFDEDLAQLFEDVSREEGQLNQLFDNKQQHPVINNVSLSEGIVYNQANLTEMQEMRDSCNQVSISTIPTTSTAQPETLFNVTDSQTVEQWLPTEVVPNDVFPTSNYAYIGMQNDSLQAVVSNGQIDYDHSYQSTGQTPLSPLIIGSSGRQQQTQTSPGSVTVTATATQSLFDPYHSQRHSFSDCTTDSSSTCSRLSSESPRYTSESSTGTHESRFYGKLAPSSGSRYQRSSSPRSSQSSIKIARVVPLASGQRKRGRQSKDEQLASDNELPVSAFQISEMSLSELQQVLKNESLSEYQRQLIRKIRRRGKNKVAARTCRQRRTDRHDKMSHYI

[7] = target: SWI/SNF-related matrix-associated actin-dependent regulator of chromatin subfamily A member 2 (Homo sapiens, UniProt P51531); test: Luminescence-based cell-based high throughput dose response assay to identify activators of the function of SWI/SNF related, matrix associated, actin dependent regulator of chromatin, subfamily a, member 2 (SMARCA2, BRM).; format: functional
[8] = Counterscreen for activators of the function of SWI/SNF related, matrix associated, actin dependent regulator of chromatin, subfamily a, member 2 (SMARCA2, BRM): Luminescence-based cell-based high throughput dose response assay to identify non-selective compounds using the VP16 reporter assay.; format: functional
[9] = target: Mu-type opioid receptor (Homo sapiens, UniProt P35372); format: functional, cell-based;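 also: U2OS cells with beta-arrestin recruitment to OPRM1 by beta-gal complementation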
[10] = target: 5-hydroxytryptamine receptor 2A (Mus musculus, UniProt P35363); format: functional, cell-based;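 also: CHO-K1 cells with tagged receptor and beta-arrestin; agonist potency measured as compound-induced activation of the receptor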
[11] = target: NAD-dependent protein deacylase sirtuin-5, mitochondrial (Homo sapiens, UniProt Q9NXA8); test: sirtuin-5 deacylation blockers, concentration series – biochemical, fluorescence imaging, cherry-pick, set 5, dose response (AID 720591);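 also: desuccinylation of succinyl peptide AMC substrate read as fluorescence after trypsin release; potency of inhibitors that lower fluorescence and may act on trypsin instead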
[12] = target: T2, RNA-binding protein pos-1 (Caenorhabditis elegans, UniProt G5EF15); test: disruptors of C. elegans POS-1 RNA interaction – biochemical, fluorescence polarization, dose response (AID 1964);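 also: purified POS-1 fused to maltose binding protein made in E. coli; potency of compounds blocking POS-1 binding to fluorescent RNA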
T2 sequence (G5EF15 whole entry): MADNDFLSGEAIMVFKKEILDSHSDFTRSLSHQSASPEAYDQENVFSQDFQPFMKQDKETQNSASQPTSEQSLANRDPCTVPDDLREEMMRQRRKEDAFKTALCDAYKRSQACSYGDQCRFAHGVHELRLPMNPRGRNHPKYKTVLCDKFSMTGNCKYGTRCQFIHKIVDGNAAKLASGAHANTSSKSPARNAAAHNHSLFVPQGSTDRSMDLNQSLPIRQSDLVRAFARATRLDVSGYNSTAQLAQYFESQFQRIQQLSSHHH

[13] = target: T3, Zinc finger protein mex-5 (Caenorhabditis elegans, UniProt Q9XUB2); test: potency of MEX-5 RNA-binding blockers – biochemical, C. elegans, fluorescence polarization, dose response (AID 1960)
T3 sequence (Q9XUB2 whole entry): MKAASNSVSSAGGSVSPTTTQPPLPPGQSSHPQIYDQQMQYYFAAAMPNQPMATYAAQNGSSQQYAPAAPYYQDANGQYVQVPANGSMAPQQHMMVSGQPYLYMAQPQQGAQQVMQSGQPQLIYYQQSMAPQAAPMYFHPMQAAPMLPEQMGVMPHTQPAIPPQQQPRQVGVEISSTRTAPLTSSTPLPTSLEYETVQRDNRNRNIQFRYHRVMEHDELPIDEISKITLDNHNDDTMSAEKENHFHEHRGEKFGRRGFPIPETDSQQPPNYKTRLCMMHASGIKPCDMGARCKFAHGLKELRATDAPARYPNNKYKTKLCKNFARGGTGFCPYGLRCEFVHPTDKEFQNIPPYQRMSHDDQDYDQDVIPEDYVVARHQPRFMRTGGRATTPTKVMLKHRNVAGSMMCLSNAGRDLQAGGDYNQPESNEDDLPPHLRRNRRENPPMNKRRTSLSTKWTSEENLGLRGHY

[14] = target: Beta-lactamase (Pseudomonas aeruginosa, UniProt Q79MP6);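 also: biochemical dose-response test of metallo-beta-lactamase enzyme inhibition, read out by epi-absorbance; purified recombinant IMP-1 metallo-beta-lactamase with nitrocefin as substrate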
[15] = target: Beta-lactamase (Salmonella choleraesuis (strain SC-B67), UniProt Q5J463)
[16] = system: H9c2; test: cells; format: functional, cell-based; conditions: Rattus norvegicus, H9c2, Myocardium;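 also: confirmatory concentration-response retest of ultra-high-throughput screening hits for modulation of myocardial damage; cell death induced by hydrogen peroxide oxidative stress; compound pretreatment for 60 min then peroxide exposure for 2 h; potency is for protecting the cells against peroxide damage rather than for killing them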
[17] = target: T4, Polyadenylate-binding protein 1 (Homo sapiens, UniProt P11940); test: MLLE binding blockers, Cy5 peptide tracer – biochemical, fluorescence polarization, Cy5-PAM2 peptide, secondary, miRNA deadenylation inhibitor project, dose response (AID 602260); format: functional; conditions: read-out: IC50_Mean
[18] = target: T4, Polyadenylate-binding protein 1; test: MLLE domain peptide-binding blockers, IC50 – biochemical, fluorescence polarization, FITC-PAM2 peptide, dose response (AID 602259); format: functional; conditions: read-out: IC50_Mean

Kallikrein-7, sequence (P49862 whole entry): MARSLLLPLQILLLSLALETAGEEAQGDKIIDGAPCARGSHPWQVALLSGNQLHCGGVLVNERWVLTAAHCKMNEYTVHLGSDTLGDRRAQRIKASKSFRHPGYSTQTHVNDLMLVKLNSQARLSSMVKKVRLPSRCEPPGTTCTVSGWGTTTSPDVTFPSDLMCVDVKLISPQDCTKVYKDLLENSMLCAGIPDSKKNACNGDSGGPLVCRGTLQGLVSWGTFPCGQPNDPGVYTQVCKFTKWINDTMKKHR
Cytochrome P450 3A4, sequence (P08684 whole entry): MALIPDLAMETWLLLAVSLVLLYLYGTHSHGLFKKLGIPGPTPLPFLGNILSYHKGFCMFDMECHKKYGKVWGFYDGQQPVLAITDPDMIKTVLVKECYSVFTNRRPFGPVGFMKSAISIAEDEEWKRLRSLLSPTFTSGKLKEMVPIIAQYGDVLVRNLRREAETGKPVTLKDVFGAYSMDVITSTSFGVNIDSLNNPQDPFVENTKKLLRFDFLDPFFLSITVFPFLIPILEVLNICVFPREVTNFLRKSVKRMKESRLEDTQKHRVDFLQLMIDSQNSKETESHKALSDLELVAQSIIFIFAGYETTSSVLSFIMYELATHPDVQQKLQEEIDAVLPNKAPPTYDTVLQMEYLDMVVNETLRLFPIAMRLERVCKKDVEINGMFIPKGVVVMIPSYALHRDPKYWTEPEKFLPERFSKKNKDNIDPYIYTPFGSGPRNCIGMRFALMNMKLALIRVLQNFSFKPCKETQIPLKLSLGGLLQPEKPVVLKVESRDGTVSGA
Disintegrin and metalloproteinase domain-containing protein 17, sequence (P78536 whole entry, the tested form may be a part): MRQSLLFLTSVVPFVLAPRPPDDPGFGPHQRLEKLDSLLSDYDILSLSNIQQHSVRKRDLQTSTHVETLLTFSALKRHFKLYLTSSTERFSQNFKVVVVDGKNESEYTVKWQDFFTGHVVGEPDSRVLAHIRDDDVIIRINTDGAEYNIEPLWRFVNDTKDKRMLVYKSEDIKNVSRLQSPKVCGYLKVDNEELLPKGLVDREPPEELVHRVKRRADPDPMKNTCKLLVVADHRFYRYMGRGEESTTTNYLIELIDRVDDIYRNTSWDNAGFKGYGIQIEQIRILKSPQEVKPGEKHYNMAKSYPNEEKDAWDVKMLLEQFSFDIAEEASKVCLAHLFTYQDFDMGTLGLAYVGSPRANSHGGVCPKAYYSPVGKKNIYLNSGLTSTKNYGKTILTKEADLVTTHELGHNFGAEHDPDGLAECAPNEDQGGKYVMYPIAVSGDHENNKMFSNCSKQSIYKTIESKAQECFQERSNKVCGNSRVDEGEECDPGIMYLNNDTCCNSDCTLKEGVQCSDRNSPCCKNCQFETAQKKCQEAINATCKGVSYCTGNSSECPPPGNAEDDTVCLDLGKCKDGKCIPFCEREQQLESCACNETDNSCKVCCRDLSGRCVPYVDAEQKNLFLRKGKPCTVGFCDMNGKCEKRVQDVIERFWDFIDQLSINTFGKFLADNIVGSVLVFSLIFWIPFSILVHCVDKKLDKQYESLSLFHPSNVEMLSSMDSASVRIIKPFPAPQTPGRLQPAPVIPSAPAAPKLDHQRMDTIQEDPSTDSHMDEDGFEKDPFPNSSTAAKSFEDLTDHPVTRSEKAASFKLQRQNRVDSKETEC
T4 sequence (P11940 whole entry, the tested form may be a part): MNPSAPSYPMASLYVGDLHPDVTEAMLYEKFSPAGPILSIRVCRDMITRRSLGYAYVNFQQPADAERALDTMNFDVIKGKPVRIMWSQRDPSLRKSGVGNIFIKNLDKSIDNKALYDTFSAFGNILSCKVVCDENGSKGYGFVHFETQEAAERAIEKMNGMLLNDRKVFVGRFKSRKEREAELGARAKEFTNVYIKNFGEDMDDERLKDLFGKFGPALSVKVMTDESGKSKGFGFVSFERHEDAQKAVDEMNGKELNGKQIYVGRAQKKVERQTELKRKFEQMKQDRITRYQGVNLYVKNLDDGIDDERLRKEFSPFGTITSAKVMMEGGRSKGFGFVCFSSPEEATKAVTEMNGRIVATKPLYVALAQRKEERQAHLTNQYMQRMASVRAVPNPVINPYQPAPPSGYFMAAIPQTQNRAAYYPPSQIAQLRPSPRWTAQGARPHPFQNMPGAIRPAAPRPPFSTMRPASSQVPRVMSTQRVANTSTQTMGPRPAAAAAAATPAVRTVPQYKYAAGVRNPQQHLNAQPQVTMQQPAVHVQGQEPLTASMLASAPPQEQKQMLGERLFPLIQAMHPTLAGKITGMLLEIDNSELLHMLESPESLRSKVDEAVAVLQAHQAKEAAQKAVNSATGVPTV
Beta-lactamase (Pseudomonas aeruginosa, UniProt Q79MP6), sequence (Q79MP6 whole entry): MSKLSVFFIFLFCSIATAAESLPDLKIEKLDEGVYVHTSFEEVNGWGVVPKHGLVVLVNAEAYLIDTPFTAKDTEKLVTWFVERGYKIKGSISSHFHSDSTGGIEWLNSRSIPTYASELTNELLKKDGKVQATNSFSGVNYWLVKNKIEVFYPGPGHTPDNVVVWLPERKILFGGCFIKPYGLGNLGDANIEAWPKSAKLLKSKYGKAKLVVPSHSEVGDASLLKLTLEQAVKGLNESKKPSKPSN
5-hydroxytryptamine receptor 2A, sequence (P35363 whole entry): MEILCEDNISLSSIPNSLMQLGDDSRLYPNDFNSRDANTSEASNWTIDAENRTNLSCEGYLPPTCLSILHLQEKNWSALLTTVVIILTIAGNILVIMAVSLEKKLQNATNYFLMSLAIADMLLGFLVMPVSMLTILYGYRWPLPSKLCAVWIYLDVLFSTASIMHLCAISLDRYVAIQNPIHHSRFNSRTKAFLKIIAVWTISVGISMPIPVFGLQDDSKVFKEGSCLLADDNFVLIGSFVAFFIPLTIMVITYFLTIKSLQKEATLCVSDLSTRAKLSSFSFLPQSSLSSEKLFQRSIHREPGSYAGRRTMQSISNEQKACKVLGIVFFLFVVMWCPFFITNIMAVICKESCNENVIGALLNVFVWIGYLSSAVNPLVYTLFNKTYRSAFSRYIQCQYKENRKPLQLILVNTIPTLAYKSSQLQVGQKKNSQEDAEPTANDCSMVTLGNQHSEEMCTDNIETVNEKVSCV
NAD-dependent protein deacylase sirtuin-5, mitochondrial, sequence (Q9NXA8 whole entry, the tested form may be a part): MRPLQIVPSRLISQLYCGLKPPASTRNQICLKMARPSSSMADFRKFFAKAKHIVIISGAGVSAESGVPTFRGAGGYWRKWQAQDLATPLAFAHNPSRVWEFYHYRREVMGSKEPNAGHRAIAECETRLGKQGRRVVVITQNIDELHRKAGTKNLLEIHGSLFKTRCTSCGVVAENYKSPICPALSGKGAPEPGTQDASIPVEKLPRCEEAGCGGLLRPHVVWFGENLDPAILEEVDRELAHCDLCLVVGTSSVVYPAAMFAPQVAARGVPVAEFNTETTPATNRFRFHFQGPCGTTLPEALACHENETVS
Mu-type opioid receptor, sequence (P35372 whole entry): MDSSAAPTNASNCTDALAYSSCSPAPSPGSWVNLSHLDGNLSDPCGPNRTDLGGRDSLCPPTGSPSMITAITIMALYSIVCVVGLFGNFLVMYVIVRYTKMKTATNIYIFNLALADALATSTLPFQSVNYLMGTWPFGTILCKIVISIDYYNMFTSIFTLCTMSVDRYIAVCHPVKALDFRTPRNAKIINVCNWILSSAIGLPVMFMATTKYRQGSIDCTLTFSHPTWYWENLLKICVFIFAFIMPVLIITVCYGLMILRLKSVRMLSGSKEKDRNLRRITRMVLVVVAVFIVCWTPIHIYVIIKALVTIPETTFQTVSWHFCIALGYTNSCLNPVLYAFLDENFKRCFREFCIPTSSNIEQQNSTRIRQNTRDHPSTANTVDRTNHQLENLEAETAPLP
Beta-lactamase (Salmonella choleraesuis (strain SC-B67), UniProt Q5J463), sequence (Q5J463 whole entry): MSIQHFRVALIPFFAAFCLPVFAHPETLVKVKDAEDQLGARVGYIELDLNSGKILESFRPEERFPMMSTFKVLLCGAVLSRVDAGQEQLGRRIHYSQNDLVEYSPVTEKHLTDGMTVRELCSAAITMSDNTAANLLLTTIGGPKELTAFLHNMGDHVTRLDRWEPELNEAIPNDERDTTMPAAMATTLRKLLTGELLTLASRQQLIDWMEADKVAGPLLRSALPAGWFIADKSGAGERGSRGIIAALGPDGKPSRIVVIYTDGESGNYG

CC(C)(C)c1ccc(-c2nc(NCc3cccnc3)c3ccccc3n2)cc1
IC50 [1]: > 69.5 µM (inactive) | IC50 [2]: > 7.72 µM (active)

O=C(CC(c1ccccc1)c1ccccc1)Nc1ccc2c(c1)OCCO2
EC50 [3]: 33.6 µM (active) | IC50 [1]: > 69.5 µM (inactive) | IC50 [2]: > 69.5 µM (inactive) | AC50 [4]: 20 µM (inconclusive)

O=C(c1cc(-c2cccs2)nc2ccccc12)N1CCN(CCO)CC1
EC50 [5]: > 69.5 µM (inactive)

O=c1c(-c2ccc(Br)cc2)coc2c(CN3CCOCC3)c(O)ccc12
IC50 [6]: > 100 µM (inactive) | EC50 [5]: 66.1 µM (inactive)

O=c1c2ccccc2sc2c(CO)ccc(NCCN3CCCCC3)c12
EC50 [7]: > 91.1 µM (inactive) | EC50 [8]: > 91.1 µM (inactive) | AC50 [4]: 6.31 µM (inconclusive)

CC(C)=CC(=O)N1CC[C@@H](N2CCN(c3ccccc3F)CC2)[C@H](O)C1
EC50 [9]: 92.4 µM (inactive) | EC50 [10]: 43.5 µM (inactive)

COCC(C)n1c(C)cc(C(=O)COC(=O)CCc2nc(O)c3ccccc3n2)c1C (configuration not stated)
AC50 [11]: > 30 µM (inactive)

CCOC(=O)c1c2c3c(cccc3n(C)c1=O)C(=O)c1ccccc1-2
EC50 [12]: 8.67 µM (inconclusive) | EC50 [13]: 9.59 µM (active) | IC50 [14]: > 59.6 µM (inactive) | IC50 [15]: > 59.6 µM (inactive) | IC50 [16]: > 79 µM (inactive) | IC50 [17]: > 66 µM (inactive) | IC50 [18]: 37.2 µM (inactive)
